This note sets out measurements from PubChem BioAssay AID330 (DTP/NCI, 2004).

This assay deals with P388 leukemia ip, CD2F1 mice, survival T/C. The assay is described as follows: NCI In Vivo Anticancer Drug Screen. Data for tumor model P388 Leukemia (intraperitoneal) in CD2F1 (CDF1) mice. Conditions: endpoint: median survival time, higher = longer survival. The method in brief: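 Mice carrying the transplanted tumor received test compound or vehicle. Survival was recorded in each group, and the value is the treated-group measurement divided by that of the vehicle-treated control group.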

Setting [1] is: dose: 50.0 mg/kg/injection, schedule: Q01DX005 (ip), vehicle: saline with Tween-80.
Setting [2] is: dose: 100.0 mg/kg/injection, schedule: Q01DX005 (ip), vehicle: saline with Tween-80.
Where [3] appears, read: dose: 200.0 mg/kg/injection, schedule: Q01DX005 (ip), vehicle: saline with Tween-80.
[4] abbreviates: dose: 50.0 mg/kg/injection, schedule: Q01DX009 (ip), vehicle: saline with Tween-80.
The mark [5] stands for this setting: dose: 100.0 mg/kg/injection, schedule: Q01DX009 (ip), vehicle: saline with Tween-80.
The mark [6] stands for this setting: dose: 200.0 mg/kg/injection, schedule: Q01DX009 (ip), vehicle: saline with Tween-80.
The mark [7] stands for this setting: dose: 50.0 mg/kg/injection, schedule: Q01DX005 (ip), vehicle: Klucel (hydroxypropylcellulose) (HPC).
Setting [8] is: dose: 100.0 mg/kg/injection, schedule: Q01DX005 (ip), vehicle: Klucel (hydroxypropylcellulose) (HPC).
Where [9] appears, read: dose: 200.0 mg/kg/injection, schedule: Q01DX005 (ip), vehicle: Klucel (hydroxypropylcellulose) (HPC).
Where [10] appears, read: dose: 25.0 mg/kg/injection, schedule: Q01DX009 (ip), vehicle: saline with Tween-80.
The mark [11] stands for this setting: dose: 50.0 mg/kg/injection, schedule: Q01DX009 (ip), vehicle: Klucel (hydroxypropylcellulose) (HPC).
Where [12] appears, read: dose: 100.0 mg/kg/injection, schedule: Q01DX009 (ip), vehicle: Klucel (hydroxypropylcellulose) (HPC).
The mark [13] stands for this setting: dose: 200.0 mg/kg/injection, schedule: Q01DX009 (ip), vehicle: Klucel (hydroxypropylcellulose) (HPC).

Structures are written as SMILES. Several values for one entry are separate records, joined by “and”; a condition that tells them apart may be missing. Identical values can stand only once. Toxic doses and inconclusive results are not listed.

For `Cn1nnnc1/C=C/c1ccccc1`, the T/C was 106 % of control (dose: 100.0 mg/kg/injection, schedule: Q04DX003 (ip), vehicle: Klucel (hydroxypropylcellulose) (HPC)); 104 % of control (dose: 200.0 mg/kg/injection, schedule: Q04DX003 (ip), vehicle: Klucel (hydroxypropylcellulose) (HPC)); 105 % of control (dose: 400.0 mg/kg/injection, schedule: Q04DX003 (ip), vehicle: Klucel (hydroxypropylcellulose) (HPC)).

For `O=C(/C=C/c1ccco1)c1ccc(Cl)cc1`, the T/C reads like this: (dose: 50.0 mg/kg/injection, schedule: Q01DX001 (ip), vehicle: saline sonified) 100 % of control; (dose: 100.0 mg/kg/injection, schedule: Q01DX001 (ip), vehicle: saline sonified) 95 % of control; (dose: 200.0 mg/kg/injection, schedule: Q01DX001 (ip), vehicle: saline sonified) 100 % of control.

Regarding `O=C(NNc1ccccc1)N(Nc1ccccc1)C(=O)Nc1ccccc1`, the T/C by setting is: under setting [1], 99 % of control; under setting [2], 91 % of control; under setting [3], 99 % of control.

Regarding `Cc1c(F)cccc1[N+](=O)[O-]`, the T/C is 104 % of control under setting [4], 114 % of control under setting [5] and 123 % of control under setting [6].

Consider `O=C1C(=O)N(c2ccc([N+](=O)[O-])cc2)C(=O)N1c1ccc([N+](=O)[O-])cc1`, for which the T/C is, setting by setting: (dose: 60.0 mg/kg/injection, schedule: Q01DX005 (ip), vehicle: saline with Tween-80) 112 % of control; (dose: 120.0 mg/kg/injection, schedule: Q01DX005 (ip), vehicle: saline with Tween-80) 95 % of control; (dose: 240.0 mg/kg/injection, schedule: Q01DX005 (ip), vehicle: saline with Tween-80) 95 % of control.

In the case of `CCCCN(CCCC)c1nn[nH]n1`, the T/C is 89 % of control under setting [7], 94 % of control under setting [8] and 95 % of control under setting [9].

Take `COc1cc2c(cc1OC)C(Cc1ccccc1)=NCC2`: the T/C is, setting by setting: under setting [10], 100 % of control; under setting [4], 95 % of control; under setting [5], 90 % of control.

Regarding `COC(C(=O)C(O)C(C)O)C1CC2C=C3C=C(OC4CC(OC5CC(O)C(OC)C(C)O5)C(OC(C)=O)C(C)O4)C(C)C(=O)C3=C(O)C2=C(O)C1OC1CC(OC2CC(OC3CC(C)(O)C(O)C(C)O3)C(O)C(C)O2)C(O)C(C)O1` (stereo not given), the T/C is, setting by setting: (dose: 0.25 mg/kg/injection, schedule: Q01DX001 (ip), vehicle: water) 110 % of control; (dose: 0.5 mg/kg/injection, schedule: Q01DX001 (ip), vehicle: water) 112 % of control; (dose: 1.0 mg/kg/injection, schedule: Q01DX001 (ip), vehicle: water) 118 % of control; (dose: 2.0 mg/kg/injection, schedule: Q01DX001 (ip), vehicle: water) 124 % of control; (dose: 8.0 mg/kg/injection, schedule: Q01DX001 (ip), vehicle: water) 154 % of control.

In the case of `CC(C)c1cc(C(=O)O)c(O)c(C(C)C)c1.CC(C)c1cc(C(=O)O)c(O)c(C(C)C)c1.[Cu]`, the T/C was 96 % of control (dose: 12.5 mg/kg/injection, schedule: Q01DX005 (ip), vehicle: saline with Tween-80); 90 % of control (dose: 25.0 mg/kg/injection, schedule: Q01DX005 (ip), vehicle: saline with Tween-80); 98 % of control under setting [1].

Take `CCC(=O)c1nc(N)[nH]c1CC`: the T/C runs as follows: (dose: 2.5 mg/kg/injection, schedule: Q01DX005 (ip), vehicle: Klucel (hydroxypropylcellulose) (HPC)) 101 % of control; (dose: 5.0 mg/kg/injection, schedule: Q01DX005 (ip), vehicle: Klucel (hydroxypropylcellulose) (HPC)) 93 % of control; (dose: 10.0 mg/kg/injection, schedule: Q01DX005 (ip), vehicle: Klucel (hydroxypropylcellulose) (HPC)) 102 % of control.

`COc1ccc(CC2c3cc(OC)c(OC)cc3CCN2C)cc1OC` (stereo not given): the T/C was 97 % of control (dose: 1.5 mg/kg/injection, schedule: Q01DX005 (ip), vehicle: saline with Tween-80); 98 % of control (dose: 3.0 mg/kg/injection, schedule: Q01DX005 (ip), vehicle: saline with Tween-80); 99 % of control (dose: 6.0 mg/kg/injection, schedule: Q01DX005 (ip), vehicle: saline with Tween-80); 91 % of control under setting [4].

Turning to `COC(=O)C12CC(CCC1C13CCC4(OCCO4)C(C)(C)C1C(=O)OC3)C(C)C2O` (stereo not given), the T/C was 97 % of control (dose: 100.0 mg/kg/injection, schedule: Q04DX002 (ip), vehicle: saline with Tween-80); 94 % of control (dose: 200.0 mg/kg/injection, schedule: Q04DX002 (ip), vehicle: saline with Tween-80); 100 % of control (dose: 400.0 mg/kg/injection, schedule: Q04DX002 (ip), vehicle: saline with Tween-80).

For the compound `COc1ccc(C(O)C2CCCN(c3ccccc3)S2(=O)=O)cc1` (stereo not given), the T/C reads like this: (dose: 100.0 mg/kg/injection, schedule: Q01DX001 (ip), vehicle: saline with Tween-80) 101 % of control; (dose: 200.0 mg/kg/injection, schedule: Q01DX001 (ip), vehicle: saline with Tween-80) 94 % of control; (dose: 400.0 mg/kg/injection, schedule: Q01DX001 (ip), vehicle: saline with Tween-80) 98 % of control.

Take `CCCCC1=C(O)c2ccccc2C(=NC(CO)(CO)CO)C1=O`: the T/C reads like this: under setting [1], 103 % of control; under setting [2], 110 % of control; under setting [3], 100 % of control.

`O=C(Nc1cccc([N+](=O)[O-])c1)C1C(=O)N(c2cccc([N+](=O)[O-])c2)C(=O)/C1=N/O` (stereo not given): the T/C was 99 % of control under setting [1], 95 % of control under setting [2] and 100 % of control under setting [3].

Take `CCOP(=O)(CC(=O)NCc1cc(C(C)(C)C)c(O)c(C(C)(C)C)c1)OCC`: the T/C runs as follows: under setting [4], 100 % of control; under setting [5], 93 % of control; under setting [6], 96 % of control.

As for `CCn1c2ccccc2c2cc(N=Nc3cc4ccccc4cc3O)ccc21`, the T/C runs as follows: under setting [11], 104 % of control; under setting [12], 100 % of control; under setting [13], 104 % of control.

Take `Clc1ccc(C(Cn2ccnc2)OCc2c(Cl)cccc2Cl)cc1` (stereo not given): the T/C was 102 % of control under setting [4] and 97 % of control under setting [5].

On to `Cc1ccc(C(=O)C(C#N)=Nc2ccc(N(C)C)cc2)cc1`, for which the T/C reads like this: (dose: 12.5 mg/kg/injection, schedule: Q01DX005 (ip), vehicle: Klucel (hydroxypropylcellulose) (HPC)) 92 % of control; under setting [7], 87 % of control and 91 % of control; under setting [8], 92 % of control; under setting [9], 99 % of control.

Consider `COc1cc(=O)cc2n(c1=O)CCC2`, for which the T/C is, setting by setting: (dose: 60.0 mg/kg/injection, schedule: Q01DX005 (ip), vehicle: saline) 94 % of control; (dose: 120.0 mg/kg/injection, schedule: Q01DX005 (ip), vehicle: saline) 94 % of control; (dose: 240.0 mg/kg/injection, schedule: Q01DX005 (ip), vehicle: saline) 92 % of control.

As for `Cc1cc(NC(=S)SCc2ccc3c(c2)OCO3)ccc1Br`, the T/C reads like this: (dose: 25.0 mg/kg/injection, schedule: Q01DX009 (ip), vehicle: Klucel (hydroxypropylcellulose) (HPC)) 102 % of control and 107 % of control; under setting [10], 96 % of control; under setting [11], 107 % of control and 115 % of control and 116 % of control; under setting [4], 91 % of control; (dose: 50.0 mg/kg/injection, schedule: Q01DX009 (ip), vehicle: suspension in saline) 93 % of control; under setting [12], 107 % of control and 115 % of control and 118 % of control. Further, the T/C is 100 % of control under setting [5]; 104 % of control (dose: 100.0 mg/kg/injection, schedule: Q01DX009 (ip), vehicle: suspension in saline); 107 % of control under setting [13]; 100 % of control under setting [6]; 93 % of control (dose: 200.0 mg/kg/injection, schedule: Q01DX009 (ip), vehicle: suspension in saline).

`CC(C)(OCc1ccccc1)c1ccccc1P(c1ccccc1)c1ccccc1`: the T/C is 101 % of control under setting [11], 101 % of control under setting [12] and 110 % of control under setting [13].

For `CCCCCSc1ncnc2nc[nH]c12`, the T/C is 100 % of control under setting [4]; 109 % of control under setting [5]; 95 % of control (dose: 100.05 mg/kg/injection, schedule: Q04DX003 (ip), vehicle: saline with Tween-80); 104 % of control under setting [6]; 104 % of control (dose: 200.0 mg/kg/injection, schedule: Q04DX003 (ip), vehicle: saline with Tween-80).

As to `Cc1c(C)[n+]([O-])c(-c2ccc(N(C)C)cc2)n1O`, the T/C runs as follows: under setting [4], 100 % of control; under setting [5], 91 % of control; under setting [6], 94 % of control.
